Assay results reported in US20170224840A1, “Drug Delivery System Comprising A Cancer Stem Cell-Targeted Carbon Nanotube, Preparation and Use Thereof” (Institute of Pharmacology and Toxicology Academy of …, priority 2014, published 2017).

Experiments:
CD44+ cells [1] = assay: WST-8 proliferation inhibition, CD44+ cells; assay type: cell-based, human; conditions: 48 h, series of concentrations
Protocol: (§1) CD44+ cells and CD44-cells sorted from human gastric cancer cell line AGS were seeded in an amount of 5000/well to 96-well plates, and incubated for 24 h at 37° C. in a 5% CO2 incubator. Free salinomycin in a series of concentrations, SAL-SWNTs-CHI, SAL-SWNTs-CHI-HA or blank SWNTs-CHI-HA were added to, and same amount of drug-free culture medium was used as blank control. After the addition, the 96-well plates were incubated for 48 h at 37° C. in a 5% CO2 incubator. After the completion of the cell culture, the plates were taken out and the culture media in the wells were removed. After washing with sterile PBS, 100 μL of PBS and 10 μL of WST-8 reagent were added to each well, and incubation was continued for 2 hours. Optical density (OD) was measured at the wavelength of 450 nm using a microplate reader. The toxicities of various salinomycin preparations on gastric cancer stem cells were evaluated by using the percentages of surviving cells (Survival rate, %) after the addition and culture. The percentages of surviving cells were calculated according to the following formula:
(§2) Inhibition rate=1−Cell survival rate.

CD44+ cells [2] = assay: Apoptosis by Annexin V-FITC / propidium iodide flow cytometry; assay type: cell-based, human; conditions: drug concentration 5.0 μM, 12 h
Protocol: Flow cytometry was used to detect the apoptosis of gastric cancer stein cells via double-staining method with Annexin V-FITC and propidium iodide (PI), so as to observe the activities of various salinomycin dosage forms in induction of apoptosis of gastric cancer stem cells. CD44+ cells were seeded in a 6-well cell culture plate in an amount of 5×10^5 cells/well (2 ml), and incubated at 37° C. in a 5% CO2 cell incubator for 24 h; and separately added with PBS (pH 7.4, 0.1 M), blank SWNTs-CHI-HA, free salinomycin, SAL-SWNTs-CHI or SAL-SWNTs-CHI-HA (drug concentration: 5.0 μM), and continuously incubated at 37° C. for 12 h in a 5% CO2 cell incubator. The 6-well cell culture plate was removed from the cell culture incubator, the supernatant was carefully sucked up; the cells were washed three times with cold pH7.4 PBS, collected and suspended in 200 μl of binding buffer. 5 μl of Annexin V-FITC and 5 μl of propidium iodide were added in the dark, placed in the dark at room temperature for 15 min, and the apoptotic rate of the cells was detected by flow cytometry.

AGS cells = assay: Effect on proportion of CD44+ cells in AGS cells (flow cytometry); assay type: cell-based, human; conditions: drug concentration 1.0 μM, 48 h; blank control 5.2±0.1%
Protocol: In order to measure the effects of various salinomycin dosage forms on the expression of CD44 in AGS cells, AGS cells were seeded in 6-well plates at 3×10^5 cells/well. After incubation for 24 h, AGS cells were incubated with free mitomycin, free salinomycin, SAL-SWNTs-CHI or SAL-SWNTs-CHI-HA (drug concentration was 1.0 μM) separately at 37° C. for 48 h. The blank medium was used as control. After incubation, the cells were washed three times with cold PBS, digested with 0.25% trypsin, and then pipetted with PBS to make cell suspensions. The expression rates of CD44 in AGS cells were detected by flow cytometry.

[3] = cited from earlier work
CD44− cells = assay: WST-8 proliferation inhibition, CD44- cells; assay type: cell-based, human; conditions: 48 h, series of concentrations
Protocol: as §1, §2

breast cancer stem cells = conditions: cited from earlier work
[4] = test system: gastric cancer stem cell spheres; assay: Inhibition of growth of gastric cancer stem cell spheres; assay type: cell-based, human; conditions: salinomycin 5 μM, 6th day after administration; PBS 433.3±6.0%
Protocol: (§3) CD44+ cell suspension was inoculated to a low-absorption 24-well plate in an amount of 5×10^4/well, and subjected to suspension culture with DMEM/F12 medium (1% N2, 2% B27, 10 ng/mL bFGF, 20 ng/mL EGF), incubated in a 5% CO2 incubator at 37° C. for 6 days. Medium was replaced every three days. The stem cell spheres with diameter of more than 200 μm were transferred to a 96-well culture plate, one sphere per well.
To the wells of 96-well culture plate, PBS, free salinomycin, SAL-SWNTs-CHI or SAL-SWNTs-CHI-HA were added, respectively, and the concentration of salinomycin in the above preparations was 5 μM. After addition, the 96-well plate was placed in a 37° C., 5% CO2 incubator and incubated continuously. The growth of tumor spheres under these conditions was observed. […] The formula for calculating the inhibition rate of tumor sphere growth was as follows: […], in which dmax was maximum diameter, dmin was minimum diameter; tumor sphere volume change rate %=(Vdayi/Vday0) 100%, in which Vdayi represents the volume of stem cell spheres on the i^th day after administration, and Vday0 represents the volume of stem cell spheres before administration.

[5] = test system: gastric cancer stem cell spheres; assay: Penetration of stem cell spheres by laser confocal microscopy; assay type: cell-based, human; conditions: FITC 5 uM, 12 hours
Protocol: as §3
Free FITC, FITC-SWNTs-CHI or FITC-SWNTs-CHI-HA were separately added to the wells of a 96-well plate containing stem cell spheres, and the concentration of FITC in the above preparations was 5 uM. After the addition, the 96-well plate was placed in a 37° C., 5% CO2 incubator to continue the culture for 12 hours; then the stem cell spheres were transferred to a glass-bottom dish, 5 stem cell spheres in each group, washed three times with fresh culture medium, and then 100 μl of fresh culture medium was added in each dish; for each stem cell sphere, it was light-cut into layers from the top to the center of the sphere at 10 μm intervals, and FITC fluorescence intensities of different layers were studied.

Row | Compound | Inhibitory effect on proliferation of CD44+ cells (CD44+ cells [1]) | Apoptotic rate of gastric cancer stem cells (CD44+ cells [2]) [%] | Necrosis rate of gastric cancer stem cells (CD44+ cells [2]) [%] | Proportion of CD44+ cells after treatment (AGS cells) [%] | Water solubility [3] | Inhibitory effect on proliferation of CD44− cells (CD44− cells) | Effect of killing breast cancer stem cells relative to paclitaxel (breast cancer stem cells) | Volume change rate of cell spheres [4] [%] | FITC fluorescence in stem cell spheres (penetration) [5]
1 | CC[C@@H](C(=O)[C@@H](C)[C@@H](O)[C@H](C)[C@@H]1O[C@@H]([C@@H](CC)C(=O)O)CC[C@@H]1C)[C@H]1O[C@]2(C=C[C@@H](O)[C@]3(CC[C@@](C)([C@H]4CC[C@](O)(CC)[C@H](C)O4)O3)O2)[C@H](C)C[C@@H]1C [Salinomycin] | significant inhibitory effects | 34.8 | 4.3 | 1.75±0.21 | poor | strongest inhibitory effect | more than 100 times | 179.5±5.8 | –
2 | CO[C@@]12[C@H](COC(N)=O)C3=C(C(=O)C(C)=C(N)C3=O)N1C[C@@H]1N[C@@H]12 [mitomycin C] | – | – | – | 74.9±1.0 | – | – | – | – | –
3 | fluorescein isothiocyanate [free FITC] | – | – | – | – | – | – | – | – | weakest fluorescence intensity
